Measured values: ChEMBL document CHEMBL3421601, “Rapid development of two factor IXa inhibitors from hit to lead” (Bioorg Med Chem Lett, 2015)

Tests used:
Coagulation factor IX = Coagulation factor IX (Homo sapiens, UniProt P00740); assay: Inhibition of human factor 9a using CH3SO2-D-CHG-Gly-Arg-AFC.AcOH as substrate by fluorescence assay
Coagulation factor X = Coagulation factor X (Homo sapiens, UniProt P00742); assay: Inhibition of human factor 10a using n-Acetyl-KPR-AFC as substrate by fluorescence assay
[1] = target: Voltage-gated inwardly rectifying potassium channel KCNH2 (Homo sapiens, UniProt Q12809); assay: Inhibition of human ERG
[2] = Inhibition of CYP (unknown origin); assay type: ADME; settings: human

Coagulation factor X, sequence (P00742 41-179 limits assumed): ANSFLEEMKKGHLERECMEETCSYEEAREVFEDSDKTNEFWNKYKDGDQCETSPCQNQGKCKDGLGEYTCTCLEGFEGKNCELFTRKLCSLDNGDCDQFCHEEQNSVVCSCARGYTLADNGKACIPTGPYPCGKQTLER
Coagulation factor X, sequence (P00742 235-488 limits assumed): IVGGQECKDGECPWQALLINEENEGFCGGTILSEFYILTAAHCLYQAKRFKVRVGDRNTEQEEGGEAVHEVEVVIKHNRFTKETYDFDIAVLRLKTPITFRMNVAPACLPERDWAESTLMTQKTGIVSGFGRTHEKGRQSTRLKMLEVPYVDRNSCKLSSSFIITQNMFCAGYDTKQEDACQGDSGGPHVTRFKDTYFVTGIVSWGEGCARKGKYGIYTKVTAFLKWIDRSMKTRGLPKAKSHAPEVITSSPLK
Coagulation factor IX, sequence (P00740 47-191 limits assumed): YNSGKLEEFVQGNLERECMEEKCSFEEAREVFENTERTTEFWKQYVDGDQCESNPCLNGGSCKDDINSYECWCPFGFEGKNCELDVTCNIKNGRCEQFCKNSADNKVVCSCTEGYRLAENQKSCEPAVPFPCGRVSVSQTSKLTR
Coagulation factor IX, sequence (P00740 227-461 limits assumed): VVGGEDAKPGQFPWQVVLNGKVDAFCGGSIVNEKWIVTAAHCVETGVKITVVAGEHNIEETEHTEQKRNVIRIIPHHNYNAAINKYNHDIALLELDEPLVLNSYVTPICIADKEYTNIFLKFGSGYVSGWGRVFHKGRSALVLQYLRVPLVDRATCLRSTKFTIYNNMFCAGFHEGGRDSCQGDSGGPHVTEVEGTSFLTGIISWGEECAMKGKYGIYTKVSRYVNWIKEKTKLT
Voltage-gated inwardly rectifying potassium channel KCNH2, sequence (Q12809 whole entry): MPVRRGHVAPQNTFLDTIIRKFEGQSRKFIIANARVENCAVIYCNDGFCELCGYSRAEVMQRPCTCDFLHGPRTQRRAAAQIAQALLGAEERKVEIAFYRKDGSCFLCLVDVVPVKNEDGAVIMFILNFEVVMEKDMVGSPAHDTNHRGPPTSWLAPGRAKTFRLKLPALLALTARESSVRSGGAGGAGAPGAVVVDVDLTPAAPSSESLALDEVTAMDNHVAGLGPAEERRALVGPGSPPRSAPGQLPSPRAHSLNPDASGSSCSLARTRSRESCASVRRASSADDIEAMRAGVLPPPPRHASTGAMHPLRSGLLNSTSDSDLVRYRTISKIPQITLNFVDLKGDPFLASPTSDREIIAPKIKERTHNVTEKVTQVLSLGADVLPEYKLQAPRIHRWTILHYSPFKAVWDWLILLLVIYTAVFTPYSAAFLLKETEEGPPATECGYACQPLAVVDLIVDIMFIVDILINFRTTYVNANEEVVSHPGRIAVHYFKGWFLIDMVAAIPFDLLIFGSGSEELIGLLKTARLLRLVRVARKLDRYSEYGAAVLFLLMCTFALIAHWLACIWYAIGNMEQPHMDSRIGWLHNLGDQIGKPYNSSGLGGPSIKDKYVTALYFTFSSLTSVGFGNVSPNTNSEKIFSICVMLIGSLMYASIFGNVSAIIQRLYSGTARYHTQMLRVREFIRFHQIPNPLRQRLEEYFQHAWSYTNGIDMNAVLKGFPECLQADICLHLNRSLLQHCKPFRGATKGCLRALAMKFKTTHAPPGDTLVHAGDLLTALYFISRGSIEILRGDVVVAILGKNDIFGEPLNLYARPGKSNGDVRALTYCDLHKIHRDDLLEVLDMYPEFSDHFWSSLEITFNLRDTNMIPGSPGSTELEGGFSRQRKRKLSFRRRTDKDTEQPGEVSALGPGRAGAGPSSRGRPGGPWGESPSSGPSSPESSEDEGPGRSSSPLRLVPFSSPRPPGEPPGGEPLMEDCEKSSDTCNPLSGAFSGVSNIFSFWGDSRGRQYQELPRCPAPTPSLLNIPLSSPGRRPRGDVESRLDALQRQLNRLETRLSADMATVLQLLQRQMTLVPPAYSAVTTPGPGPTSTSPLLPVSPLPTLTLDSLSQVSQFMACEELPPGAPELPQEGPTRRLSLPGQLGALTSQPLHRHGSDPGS

SMILES | Ki (Coagulation factor IX) [µM] | other results
Cc1ccc(O)c2c3c(nn12)CCC(C)(NC(=O)c1ccc(-n2cncn2)cc1Cl)C3 (configuration not stated) | 0.156 | 
Cc1ccc(O)c2nc(CCNC(=O)c3ccc(-n4cnnc4)cc3Cl)[nH]c12 | 131 | 
Cc1cc2nc(CCNC(=O)c3ccc(-n4cnnc4)cc3)[nH]c2cc1C |  | Ki (Coagulation factor X): > 62.5 µM
Cc1cc2nc(CCNC(=O)c3ccccc3-n3cnnc3)[nH]c2cc1C | > 145 | 
Cc1cc2nc(CCNC(=O)c3ccc(C#N)cc3F)[nH]c2cc1C | > 145 | 
Cc1cc2nc(CCNC(=O)c3ccccc3Cl)[nH]c2cc1C | > 145 | 
Cc1cc2nc(CCNC(=O)c3ccc(-n4cncn4)cc3Cl)[nH]c2cc1C | 2.12 | 
Cc1cc2nc(CCNC(=O)c3ccc(-n4ccnn4)cc3Cl)[nH]c2cc1C | 130 | 
Cc1cc2nc(CCNC(=O)c3ccc(-n4nccn4)cc3Cl)[nH]c2cc1C | > 145 | 
Cc1cc2nc(CCNC(=O)c3ccc(-n4ccnc4)cc3Cl)[nH]c2cc1C | 5.58 | 
Cc1ccc(O)c2c3c(nn12)CCC(C)(NC(=O)c1ccc(-n2ccnn2)cc1)C3 (configuration not stated) | 0.462 | 
Cc1ccc(O)c2c3c(nn12)CCC(C)(NC(=O)c1ccc(C#N)cc1F)C3 (configuration not stated) | 2 | Ki (Coagulation factor X): > 62.5 µM
Cc1ccc(O)c2c3c(nn12)CCC(C)(NC(=O)c1ccc(F)cc1)C3 (configuration not stated) | 18.3 | 
Cc1ccc(O)c2c3c(nn12)CCC(C)(NC(=O)c1ccc(C#N)cc1)C3 (configuration not stated) | 20.6 | 
Cc1ccc(O)c2c3c(nn12)CCC(C)(NC(=O)c1ccccc1Cl)C3 (configuration not stated) | 6.34 | 
Cc1ccc(O)c2c3c(nn12)CCC(C)(NC(=O)c1ccc(-n2cnnc2)cc1Cl)C3 (configuration not stated) | 0.09 | inhibition (INH) [1]: Not Active; inhibition (INH) [2]: Not Active; Ki (Coagulation factor X): 12 µM
Cc1ccc(O)c2c3c(nn12)CCC(C)(NC(=O)c1ccc(-n2ccnn2)cc1Cl)C3 (configuration not stated) | 0.937 | 
Cc1ccc(O)c2c3c(nn12)CCC(C)(NC(=O)c1ccc(-n2nccn2)cc1Cl)C3 (configuration not stated) | 30.3 | 
Cc1ccc(O)c2c3c(nn12)CCC(C)(NC(=O)c1ccc(-n2ccnc2)cc1Cl)C3 (configuration not stated) | 0.595 | 
Cc1ccc(O)c2c3c(nn12)CCC(C)(NC(=O)c1ccc(-n2cccn2)cc1Cl)C3 (configuration not stated) | 4.4 | 
Cc1cc2nc(C[C@H](C)NC(=O)c3ccc(-n4cnnc4)cc3Cl)[nH]c2cc1C | 55.4 | 
Cc1cc2nc(C[C@@H](C)NC(=O)c3ccc(-n4cnnc4)cc3Cl)[nH]c2cc1C | 35 | 
Cc1cc2nc([C@@H](CNC(=O)c3ccc(-n4cnnc4)cc3Cl)c3ccccc3)[nH]c2cc1C | 0.016 | inhibition (INH) [1]: Not Active; inhibition (INH) [2]: Not Active; Ki (Coagulation factor X): 0.39 µM
Cc1cc2nc([C@H](CNC(=O)c3ccc(-n4cnnc4)cc3Cl)c3ccccc3)[nH]c2cc1C | 0.52 | 
Cc1cc2nc(C(C)CNC(=O)c3ccc(-n4cnnc4)cc3Cl)[nH]c2cc1C (racemic) | 0.34 | 
